No end group written: not given here.
Tests used:
E. coli DSM 1103 = test: Checker-board assay (FICI); assay type: cell-based, Escherichia coli; settings: below 0.5 = synergistic activity
Protocol: A suitable method to study synergistic antimicrobial activity is the so-called checker-board assay, described in the Methods section. We performed such experiments on one Gram-negative bacterium, E. coli, and one Gram-positive one, S. aureus. From this method a fractional inhibitory concentration index (FICI) is determined, and when this is below 0.5, the peptides are said to have a synergistic effect against bacteria. This is the biologically relevant effect, but we are here interested in the atomistic details of the interactions behind the effect. Therefore we also use biophysical methods.
The antimicrobial activity of the peptides was investigated with a standard MIC assay[87],[88] on one Gram positive (Staphylococcus aureus, DSM 1104, ATCC 25923) and one Gram negative bacterial strain (Escherichia coli, DSM 1103, ATCC 25922). Bacteria were grown in Müller-Hinton medium (MH) at 37 °C and 220 rpm. Overnight cultures were inoculated from a single colony and grown for approximately 16 h. Day cultures were grown for approximately 3 h until they reached the exponential growth phase. These suspensions were diluted with MH-medium to a concentration of 10^6 colony-forming units (CFU) per ml. The microtiter plates (96 wells of 100 µL) were filled with 50 µL of MH, and serial 2-fold dilutions of each peptide were arranged in triplets along the columns. […] The MIC value was determined visually, as the lowest peptide concentration which inhibited bacterial growth in at least two out of three columns.
To visualize synergy between different peptides, a two-dimensional dilution assay was used[89],[90]. […] From these values, fractional inhibitory concentration indices (FICIs) were calculated with the following formula[89],[91]:1 FICI=[MIC(A)^comb/MIC(A)^alone]+[MIC(B)^comb/MIC(B)^alone] In this formula, MIC(A)^alone is the MIC value determined for peptide A alone, and MIC(A)^comb is the concentration of peptide A at the MIC determined for the combination. […]

[1] = Fluorescence ANTS/DPX vesicle leakage assay in POPC/POPG (3:1); settings: ANTS/DPX, POPC/POPG (3:1) 100 nm vesicles, P/L about 1:160 per peptide, mixtures 1:1, 10 mM HEPES pH 7.5, 155 mM NaCl, 30 °C, 600 s, % of Triton-X-100 leakage, fluorescence, mean of n = 3
Protocol: The synergy was also investigated by a fluorescence ANTS/DPX leakage assay[24],[27],[30]. As described in the Methods section, leakage from POPC/POPG (3:1) vesicles was measured for 10 minutes after the addition of vesicles to a peptide solution. Leakage is expressed as percentage of the full leakage, which was obtained after addition of detergent. A synergy factor was defined to describe the enhancement of leakage of the mixture compared to the sum of the extent of leakage for each component. […] In general a synergy factor above 2 indicated synergy. […] In the leakage assay, this pore formation can be studied under more controlled conditions. Here we use two lipid compositions for the vesicles, which are mimicking bacterial membranes.
Leakage of small unilamellar vesicles induced by the peptides was studied using a standard fluorescence assay.
The appropriate lipids for each experiment were dissolved in CHCl3, together with 0.02 mol-% Rhodamine-PE (Rh-PE). […] This stock suspension was subjected to 10 freeze-thaw cycles and then frozen. Appropriate aliquots of the stock lipid suspension were unfrozen each day and extruded (41 times) through polycarbonate membranes with 100 nm pore size, and stored at room temperature overnight. The fluorophore and quencher outside the vesicles were removed by size exclusion chromatography using spin-columns (Pierce centrifuge column, 2 ml, Life Technologies GmbH, Darmstadt, Germany) filled with Sephacryl 100-HR (2 min, 1500 × g). For elution, a 10 mM HEPES buffer (pH 7.5) was used, containing 155 mM NaCl to balance the osmolarity. After extrusion and removal of the external dye and quencher, the lipid concentration usually decreases. Therefore, before each set of measurements a rhodamine spectrum was recorded to determine the actual concentration of lipids, which was referenced to a spectrum taken of vesicles made by sonification without any subsequent treatment.
Fluorescence experiments were performed on a FluoroMax2 spectrofluorimeter (HORIBA Jobin Yvon, Unterhaching, Germany) equipped with a thermostated sample holder and magnetic stirrer, using an excitation wavelength of 355 nm, an emission wavelength of 508 nm, and slit widths of 5 nm. The peptide solutions were placed in elution buffer in a 1 cm standard cuvette at 30 °C. 100 s after the start of the measurement lipid vesicles were added, and the intensity of the fluorescence at 508 nm was recorded. The leakage was measured during 600 s after addition of vesicles, and the measurement was terminated after addition of Triton-X-100 (0.25% v/v), which dissolved the vesicles, and yielded 100% leakage. To determine the background signal of the vesicles themselves, several blanks were recorded per measurement set. From the leakage values of the peptides alone and of the mixture of two peptides a synergy factor SF was calculated:3 SF=L(A+B)/[L(A)+L(B)] […] Measurements were repeated three times and average values and standard deviations calculated for the leakage and the synergy factors. An average SF ≥ 2 was taken to indicate synergy.

[2] = Table S7 series (PGLa-to-MSI mutants)
[3] = Table S3 series (charge mutants)

| Substance | FICI in combination with MAG2-WT (E. coli DSM 1103) | Leakage, mean value [1, 2] | Leakage, mean value [1, 3] | Leakage, mean value ([1]; Table S11 series (MSI-to-PGLa mutants)) |
| --- | --- | --- | --- | --- |
| KIAGKAGAIAGKIAKVALKAL-NH2 [PtM-a2, PGLa to MSI-103 mutant, three amino acids converted] | below 0.5 | 2.4% | – | – |
| GIGKFLHSAKKFGKAFVGKIMNS-OH [MAG2-E19K, MAG2 charge mutant E19K] | – | – | 4.2% | – |
| GIGKFLHSAKKFGKAFVGKIMNS-NH 2 (GIGKFLHSAKKFGKAFVGKIMNS-NH2) [MAG2-E19K-amide, amidated MAG2 E19K mutant] | – | – | 2.9% | – |
| KIAGKIGKIAGKIAKIAGKIA-NH2 [MtP-A7G, MSI-103 to PGLa single mutant A7G] | below 0.5 | – | – | 1.4% |
| GMASKAGAIAGKIAKIAGKIA-NH2 [PtM-c1, PGLa to MSI-103 mutant, segment C replaced] | below 0.5 | 1.4% | – | – |
| GMASKAGKIAGKIAKVALKAL-NH2 (also: 15N-labeled Ala10) [PtM-A8K, PGLa single mutant A8K] | – | 2.5% | – | – |
| GMASKIGAIAGKIAKVALKAL-NH2 (also: 15N-labeled Ala10) [PtM-A6I, PGLa single mutant A6I] | – | 2.0% | – | – |

— paper PMC5640672, “Molecular mechanism of synergy between the antimicrobial peptides PGLa and magainin 2” (Scientific Reports, 2017)
